# Source: patent publication EP1961762A1, “Inhibitors of protein phosphatase 1/GADD34, preparation and uses thereof” (Institut Gustave Roussy, priority 2007, dated 2008)
# Peptide text beside a SMILES is read from it. * marks the point of attachment. Cbz = O=C(OCc1ccccc1)*; CH2F = FC*
# What was measured:
# CT26 tumour cells = assay: Anti-tumour vaccination with dying treated CT26 tumour cells, challenge with live tumour cells; format: in vivo, BALB/c mice; conditions: for immunogenic cell death: PP1/GADD34 inhibitor alone
# CRT = assay: Fluorescence detection of cell surface CRT on CT26 cells; format: cell-based, murine
# Procedure: CT26 cells were cultured at 37°C under 5% CO2 in RPMI 1640 medium supplemented with 10% FCS, penicillin, streptomycin, 1 mM pyruvate and 10 mM HEPES in the presence of doxorubicin (DX; 24 h, 25 µM), mitoxantrone (Mitox; 24h, 1 µM, Sigma), idarubicin (24h, 1 µM, Aventis, France), mitomycin C (30 µM, 48 h; Sanofi-Synthelabo, France), and/or zVAD-fmk (50 µM, 24 h; Bachem), tunicamycin (24h, 65 µM), thapsigargin (24h, 30µM), brefeldin A (24h, 50 µM, Sigma), etoposide (48h, 25µM, Tava classics), MG132 (48h, 10 µM), ALLN (48h, […]), betulinic acid (24h, 10 µM), Hoechst 33343 (24h, 0,2µM), camptothecine (24h, 15 µM), lactacystin (48h, 60 µM), BAY 11-8072 (24h, 30µM), staurosporine (24h, 1.5 µM), bafilomycin A1 (48h, 300 nM), arsenic trioxide (24h, 30µM), C2-ceramide (C2-C; 24h, 60 µM,), calyculin A (48h, 30nM), or tautomycin (48h, nM, Sigma) and/or salubrinal (48h, µM, Calbiochem).
# CT26 cells (on a glass slide or in 12-well plates) were first washed with FACS buffer (1× PBS, 5% fetus bovine serum, and 0.1% sodium azide) and then incubated with rabbit anti-mouse CRT antibody (1:100, Stressgen) in FACS buffer at 4 °C for 30 min. Cells reacted with anti-rabbit IgG (H+L) Alexa fluor 488-conjugates (1:500) in FACS buffer at 4 °C for 30 min. After washing three times with FACS buffer, surface CRT was detected by cytofluorometric analysis on a FACS Vantage. In some experiments, cells were fixed with 4% paraformaldehyde, counterstained with Hoechst (2µM; Sigma), followed by fluorescence microscopic assessment with a Leica IRE2 microscope equipped with a DC300F camera.
# CRT and/or ERp57 = assay: Immunofluorescence staining of unfixed human tumour cell lines; format: cell-based; conditions: variety of human tumour cell lines
# CT26 tumours [1] = assay: Intratumoural treatment of established CT26 tumours, nu/nu mice; conditions: single intratumoural injection
# Procedure: (§1) All animals were maintained in specific pathogen-free conditions and all experiments followed the FELASA guidelines. […] Tumours were evaluated weekly, using a caliper. In a series of experiments, BALB/c (wild type or nu/nu) carrying palpable CT26 tumours (implanted 14 days before for wild type or 7 days before for nu/nu mice by injection of 10^6 tumour cells) received a single intratumoural injection of 100 µM PBS containing the same concentration of anti-cancer agents and PP1/GADD34 inhibitors as those used in vitro, as well as rCRT (15 µg).
# CT26 tumours [2] = assay: Intratumoural treatment of established CT26 tumours, immunocompetent mice; conditions: for therapeutic effect of single agent: single intratumoural injection, 14-day-old tumours
# Procedure: as §1
# MCA205, B16F10, J558 = assay: CRT exposure on murine tumour cell lines; format: cell-based
# HeLa, A549, HCT116 = assay: CRT exposure on human tumour cell lines; format: cell-based
# [3] = test system: human HCT116 colon cancer cell; assay: Calreticulin exposure, immunofluorescence staining and cytofluorometric analysis; format: cell-based; conditions: 2 hours
# [4] = test system: murine CT26 colon cancer cells; assay: as above; format: cell-based; conditions: 2 hours
# Procedure: CT26 cells were cultured for 24 hours in the presence of the indicated agents for 24hrs, as described in Materials and Methods, and then were stained with Annexin V-FITC and the vital dye DAPI. • Fig. 1B: Identification of immunogenic cell death inducers. CT26 cells cultured as in Fig.1A were injected into the left flank, followed by injection of life tumour cells in the right flank 8 days later. The percentage of tumour free mice was determined 120 days later as in Fig.1C. • Fig. 1C: Incidence of tumours after inoculation of dying cells. Day 1 was considered the day of inoculation of dying tumour cells, 1 week before challenge with […]. • Fig. 1S. Dissociation of CRT exposure and phosphatidyl serine exposure. • Fig. 1SA, Fig. 1SB: Kinetics of CRT exposure. […] Representative pictograms are shown in Fig.1SA and quantitative data are reported in Fig.1SB. • Fig. 1SC, Fig. 1SD: Kinetics of PS exposure and cell death. […] Note that the nuclei of untreated cells were visualized with Hoechst 33342 (blue), while those of doxorubicin-treated cells emit a red fluorescence (Fig.2D). […] The surface exposure of CRT was determined by immunoflurorescence cytometry while gating on viable (propidium iodine-negative) cells (inserts) and was correlated with the immunogenicity of cell death (as determined in Fig. 1). […]
# [5] = dying CT26 cells treated with the agent injected into one flank, live tumour cells into the opposite flank 8 days later
compound,measurement,setting,value
"C[C@H]1CCC/C=C/[C@@H]2C[C@H](O)C[C@H]2[C@H](O)/C=C/C(=O)O1 [brefeldin, brefeldin A]",immunogenic apoptosis / immunogenic cell death (protection against tumour growth),CT26 tumour cells; [5],failed to induce immunogenic apoptosis
tunicamycin,immunogenic apoptosis / immunogenic cell death (protection against tumour growth),CT26 tumour cells; [5],failed to induce immunogenic apoptosis
C/C1=C/C(=O)O[C@@H]2C[C@@H](CC[C@H](C)/C=C\C=C\CC1)O[C@@](O)([C@@H]1CSC(=O)N1)C2 [latrunculin A],effect on CRT exposure induced by anthracyclins and PP1/GADD34 inhibitors,CRT; pre-incubation for 1 h with the inhibitor,abolished
C2-ceramide [C2 ceramide],immunogenic apoptosis / immunogenic cell death (protection against tumour growth),CT26 tumour cells; [5],failed to induce immunogenic apoptosis
COC[C@@H]([C@H](O)[C@H](O)C(=O)NCC[C@H](C)c1nc(/C=C/C[C@@H]2O[C@]3(C[C@@H](O)[C@@H]2C)O[C@H]([C@H](C[C@H](O)[C@H](C)[C@H](O)[C@H](C)/C=C(C)/C(C)=C/C=C/C(C)=C\C#N)OC)[C@H](OP(=O)(O)O)C3(C)C)co1)N(C)C [calyculin A],immunogenic cell death,CT26 tumour cells,not sufficient to induce immunogenic cell death
same,immunogenic potential of cells succumbing to etoposide,"CT26 tumour cells; mouse, in vivo",greatly enhanced
same,CRT exposure,CRT; agent alone,efficiently induced
same,CRT exposure,CRT; in combination with etoposide,greatly enhanced
C/C=C(/C)C(=O)O[C@H]1C(C)=C2[C@H]([C@@H]1OC(=O)CCCCCCC)[C@@](C)(OC(C)=O)C[C@H](OC(=O)CCC)[C@@]1(O)[C@H]2OC(=O)[C@@]1(C)O [thapsigargin],immunogenic apoptosis / immunogenic cell death (protection against tumour growth),CT26 tumour cells; [5],failed to induce immunogenic apoptosis
COc1cccc2c1C(=O)c1c(O)c3c(c(O)c1C2=O)C[C@@](O)(C(C)=O)C[C@@H]3O[C@H]1C[C@H](N)[C@H](O)[C@H](C)O1 [daunorubicin],exposure of CRT and/or ERp57 on the cell surface,CRT and/or ERp57,Very similar results
arsenic trioxide [arsenite],immunogenic apoptosis / immunogenic cell death (protection against tumour growth),"CT26 tumour cells; mouse, in vivo",failed to induce immunogenic apoptosis
CC[C@@]1(O)C(=O)OCc2c1cc1n(c2=O)Cc2cc3ccccc3nc2-1 [camptothecin],immunogenic apoptosis / immunogenic cell death (protection against tumour growth),CT26 tumour cells; [5],failed to induce immunogenic apoptosis
CO[C@@]12[C@H](COC(N)=O)C3=C(C(=O)C(C)=C(N)C3=O)N1C[C@@H]1N[C@@H]12 [mitomycin C],immunogenic apoptosis / immunogenic cell death (protection against tumour growth),"CT26 tumour cells; mouse, in vivo",failed to induce immunogenic apoptosis
same,therapeutic effect of single agent,CT26 tumours [1],no major therapeutic effect
same,therapeutic effect of single agent,CT26 tumours [2],no major therapeutic effect
CCOc1ccc(-c2nc3ccc(-c4nc5ccc(N6CCN(C)CC6)cc5[nH]4)cc3[nH]2)cc1 [Hoechst 33342],immunogenic apoptosis / immunogenic cell death (protection against tumour growth),CT26 tumour cells; [5],failed to induce immunogenic apoptosis
O=C(/C=C/c1ccccc1)NC(NC(=S)Nc1cccc2cccnc12)C(Cl)(Cl)Cl (stereo not shown) [salubrinal],immunogenic cell death,CT26 tumour cells,not sufficient to induce immunogenic cell death
same,immunogenic potential of cells succumbing to etoposide,"CT26 tumour cells; in combination with etoposide (mitomycin C not shown), abrogated by knocking down CRT",greatly enhanced
same,CRT exposure,CRT; agent alone,efficiently induced
same,CRT exposure,CRT; in combination with etoposide,greatly enhanced
same,CRT exposure,"MCA205, B16F10, J558",induced CRT exposure
same,CRT exposure,"HeLa, A549, HCT116",induced CRT exposure
same,therapeutic effect of single agent,CT26 tumours [1],no major therapeutic effect
same,tumour response,"CT26 tumours [2]; combined with etoposide or mitomycin C, intratumoural",stable disease or complete tumour regression
same,therapeutic effect of single agent,CT26 tumours [2],no major therapeutic effect
VKKKKIKREIKI-Ikaravafsekv [mutant control peptide],exposure of calreticulin,[3],did not induce calreticulin exposure
same,exposure of calreticulin,[4],did not induce calreticulin exposure
COC(=O)C[C@H](NC(=O)[C@H](C)NC(=O)[C@@H](NC(=O)OCc1ccccc1)C(C)C)C(=O)CF [Z-VAD-fmk] (Cbz-Val-Ala-Asp(OMe)-CH2F),immunogenicity of doxorubicin-elicited cell death,CT26 tumour cells; Z-VAD-fmk combined with doxorubicin,reduces the immunogenicity
COc1cc([C@@H]2c3cc4c(cc3[C@@H](O[C@@H]3O[C@@H]5CO[C@@H](C)O[C@H]5[C@H](O)[C@H]3O)[C@H]3COC(=O)[C@H]23)OCO4)cc(OC)c1O [etoposide],immunogenic apoptosis / immunogenic cell death (protection against tumour growth),CT26 tumour cells; [5],failed to induce immunogenic apoptosis
same,immunogenicity of etoposide-treated cells,CT26 tumour cells; sham-coated cells,poorly immunogenic
same,therapeutic effect of single agent,CT26 tumours [1],no major therapeutic effect
same,therapeutic effect of single agent,CT26 tumours [2],no major therapeutic effect
CC(=O)[C@]1(O)Cc2c(O)c3c(c(O)c2[C@@H](O[C@H]2C[C@H](N)[C@H](O)[C@H](C)O2)C1)C(=O)c1ccccc1C3=O [idarubicin],immunogenic apoptosis / immunogenic cell death (protection against tumour growth),CT26 tumour cells; [5],elicited immunogenic cell death
same,exposure of CRT and/or ERp57 on the cell surface,CRT and/or ERp57,Very similar results
